Measurements as given in paper PMC10221074, “Functional Profiling of the A-Family of Venom Peptides from the Wolf Spider Lycosa shansia” (Toxins, 2023).

Assays:
[1] = tested on: Escherichia coli BL21(DE3); experiment: Antibacterial growth assay (OD600); conditions: for Bacterial growth relative to medium, E. coli, replicate 1 / Bacterial growth relative to medium, E. coli, replicate 2 / Bacterial growth relative to medium, E. coli, replicate 3: OD600, medium = 100, MH II broth, 37 °C, peptide 200 µM mixed 50 µL + 50 µL with bacteria, Figure 7: 48 h; for Bacterial growth relative to medium, E. coli, replicate 1: replicate column 1; for Bacterial growth relative to medium, E. coli, replicate 2: replicate column 2; for Bacterial growth relative to medium, E. coli, replicate 3: replicate column 3
Description: (§1) Cryo-conserved cultures of selected bacterial strains (Table 4) were transferred to Tryptic Soy Agar (TSA) plates (Carl Roth) with a sterile inoculation loop, sealed with Parafilm (BEMIS, Neenah, WI, USA), and incubated for 1–2 days at 37 °C depending on growth. Single colonies were picked and transferred into 2–3 mL of the Mueller–Hinton II (MH II) broth (BD, Heidelberg, Germany). The bacteria were cultivated overnight, subcultured on fresh medium and grown for 3–4 h before testing at 37 °C, with shaking at 180 rpm. We measured the optical density at 600 nm (OD600) of 1 mL of the bacterial suspensions in polystyrene cuvettes (SARSTED, Nümbrecht, Germany) using an Ultrospec 10 spectrophotometer (Biochrome, Cambridge, UK). We then diluted them with the MH II medium to the preferred OD600 (Table 2). The peptides were dissolved in DMSO to generate 10 mmol/L stocks and diluted with the MH II medium to 200 µM before the assay. We used 10 µg/mL (~40 µg/mL for S. epidermidis) gentamicin and colistin (Sigma-Aldrich, Taufkirchen, Germany), DMSO and the medium only as controls. The bacteria were transferred to 96-multiwell plates with a final volume of 100 µL per well (50 µL bacterial suspension, and 50 µL test peptide). The OD600 was measured at 0, 24 and 48 h using a BioTek Eon microplate reader followed by analysis with Gen5 v2.09.

[2] = tested on: Pseudomonas aeruginosa DSM 1117; experiment: Antibacterial growth assay (OD600); conditions: OD600, medium = 100, MH II broth, 37 °C, peptide 200 µM mixed 50 µL + 50 µL with bacteria, Figure 7: 48 h; for Bacterial growth relative to medium, P. aeruginosa (1117), replicate 1: replicate column 1; for Bacterial growth relative to medium, P. aeruginosa (1117), replicate 2: replicate column 2; for Bacterial growth relative to medium, P. aeruginosa (1117), replicate 3: replicate column 3
[3] = tested on: Micrococcus luteus DSM 20030; experiment: Antibacterial growth assay (OD600); conditions: for Antibacterial activity (in words): M. luteus DSM 20030, growth after 48 h; for Bacterial growth relative to medium, M. luteus, replicate 1 / Bacterial growth relative to medium, M. luteus, replicate 2 / Bacterial growth relative to medium, M. luteus, replicate 3: OD600, medium = 100, MH II broth, 37 °C, peptide 200 µM mixed 50 µL + 50 µL with bacteria, Figure 7: 48 h; for Bacterial growth relative to medium, M. luteus, replicate 1: replicate column 1; for Bacterial growth relative to medium, M. luteus, replicate 2: replicate column 2; for Bacterial growth relative to medium, M. luteus, replicate 3: replicate column 3
G. mellonella larvae = experiment: Insecticidal activity by injection into larvae; format: in vivo, Galleria mellonella; conditions: 50 ng peptide injected, 3 cohorts of 10 larvae, survival monitored for 5 days
Description: Insecticidal activity was determined using fourth and fifth instar G. mellonella larvae (L4/L5) obtained from Fauna Topics Zoobedarf Zucht und Handels GmbH (Marbach am Neckar, Germany). Because spider venom is injected via chelicerae, we opted for an injection-based assay to reflect the natural process of envenomation as described earlier. The peptides were dissolved in a 1:1 mixture of DMSO and water to a final concentration of 10 mmol/L. We injected 50 ng of each peptide into the pseudopodium using Omnican-F, 0.30 × 12 mm/G 30 × 1/2”, a 1 mL syringe adjusted to a WPI manual microsyringe injector setup. Injections with water, DMSO/water (1:1) and ethanol (90%) were used as controls, alongside untreated specimens. Insecticidal activity screenings were performed in cohorts of 10 larvae with 3 replicates (30 specimens per treatment or control). […] Survival was monitored every 24 h for 5 days. Mortality was calculated based on the ratio of dead to injected specimens.

[4] = tested on: Staphylococcus aureus DSM 2569; experiment: Antibacterial growth assay (OD600); conditions: for Bacterial growth relative to medium, S. aureus, replicate 1 / Bacterial growth relative to medium, S. aureus, replicate 2 / Bacterial growth relative to medium, S. aureus, replicate 3: OD600, medium = 100, MH II broth, 37 °C, peptide 200 µM mixed 50 µL + 50 µL with bacteria, Figure 7: 48 h; for Bacterial growth relative to medium, S. aureus, replicate 1: replicate column 1; for Bacterial growth relative to medium, S. aureus, replicate 2: replicate column 2; for Bacterial growth relative to medium, S. aureus, replicate 3: replicate column 3; for Antibacterial activity (in words): S. aureus DSM 2569, growth after 48 h
Description: as §1

A/Hamburg/05/2009 (H1N1) = format: cell-based, influenza virus
[5] = tested on: B/Malaysia/2506/2004 (B-Mal); format: cell-based, influenza virus
[6] = tested on: Staphylococcus epidermidis DSM 28319; experiment: Antibacterial growth assay (OD600); conditions: for Bacterial growth relative to medium, S. epidermidis, replicate 1 / Bacterial growth relative to medium, S. epidermidis, replicate 2 / Bacterial growth relative to medium, S. epidermidis, replicate 3: OD600, medium = 100, MH II broth, 37 °C, peptide 200 µM mixed 50 µL + 50 µL with bacteria, Figure 7: 48 h; for Bacterial growth relative to medium, S. epidermidis, replicate 1: replicate column 1; for Bacterial growth relative to medium, S. epidermidis, replicate 2: replicate column 2; for Bacterial growth relative to medium, S. epidermidis, replicate 3: replicate column 3; for Antibacterial activity (in words): S. epidermidis DSM 28319, growth after 48 h
A/Hessen/1/2003 (H3N2) = format: cell-based, influenza virus
[7] = tested on: Listeria monocytogenes DSM 20600; experiment: Antibacterial growth assay (OD600); conditions: for Bacterial growth relative to medium, L. monocytogenes, replicate 1 / Bacterial growth relative to medium, L. monocytogenes, replicate 2 / Bacterial growth relative to medium, L. monocytogenes, replicate 3: OD600, medium = 100, MH II broth, 37 °C, peptide 200 µM mixed 50 µL + 50 µL with bacteria, Figure 7: 48 h; for Bacterial growth relative to medium, L. monocytogenes, replicate 1: replicate column 1; for Bacterial growth relative to medium, L. monocytogenes, replicate 2: replicate column 2; for Bacterial growth relative to medium, L. monocytogenes, replicate 3: replicate column 3
Description: as §1

[8] = tested on: Pseudomonas aeruginosa DSM 50071; experiment: Antibacterial growth assay (OD600); conditions: OD600, medium = 100, MH II broth, 37 °C, peptide 200 µM mixed 50 µL + 50 µL with bacteria, Figure 7: 48 h; for Bacterial growth relative to medium, P. aeruginosa (50071), replicate 1: replicate column 1; for Bacterial growth relative to medium, P. aeruginosa (50071), replicate 2: replicate column 2; for Bacterial growth relative to medium, P. aeruginosa (50071), replicate 3: replicate column 3
[9] = tested on: panel of seven bacterial strains; experiment: Antibacterial growth assay (OD600), statements on the whole panel; format: cell-based; conditions: growth after 48 h

Row | Sequence | Bacterial growth relative to medium, E. coli, replicate 1 [1] | Bacterial growth relative to medium, E. coli, replicate 2 [1] | Bacterial growth relative to medium, E. coli, replicate 3 [1] | Bacterial growth relative to medium, P. aeruginosa (1117), replicate 1 [2] | Bacterial growth relative to medium, P. aeruginosa (1117), replicate 2 [2] | Bacterial growth relative to medium, P. aeruginosa (1117), replicate 3 [2] | Bacterial growth relative to medium, M. luteus, replicate 1 [3] | Bacterial growth relative to medium, M. luteus, replicate 2 [3] | Bacterial growth relative to medium, M. luteus, replicate 3 [3] | Insecticidal effect on larvae (in words) (G. mellonella larvae) | Bacterial growth relative to medium, S. aureus, replicate 1 [4] | Bacterial growth relative to medium, S. aureus, replicate 2 [4] | Bacterial growth relative to medium, S. aureus, replicate 3 [4] | Viability of infected cells relative to aprotinin, Replicate 1 (A/Hamburg/05/2009 (H1N1)) | Viability of infected cells relative to aprotinin, Replicate 2 (A/Hamburg/05/2009 (H1N1)) | Viability of infected cells relative to aprotinin, Replicate 3 (A/Hamburg/05/2009 (H1N1)) | Viability of infected cells relative to aprotinin, Replicate 1 [5] | Viability of infected cells relative to aprotinin, Replicate 2 [5] | Viability of infected cells relative to aprotinin, Replicate 3 [5] | Bacterial growth relative to medium, S. epidermidis, replicate 1 [6] | also measured
1 | LLDVVKSKIGQTGLL [LS-AMP-A16] | 67.9376 | 59.8494 | 34.0285 | 71.8168 | 74.7999 | 64.6393 | 57.3268 | 84.1216 | 27.4989 | Individual dead insects | 50.7381 | 99.8365 | 66.4796 | 0.02774 | 0.02676 | 0.01877 | 0.002646 | 0.01088 | 0.03862 | 52.6925 | Antibacterial activity (in words) ([1]; E. coli BL21(DE3), growth after 48 h): able to decrease the growth; Antibacterial activity (in words) [3]: able to decrease the growth; Antibacterial activity (in words) [4]: able to decrease the growth; Bacterial growth relative to medium, S. epidermidis, replicate 2 [6]: 45.3012; Bacterial growth relative to medium, S. epidermidis, replicate 3 [6]: 72.1389; Antibacterial activity (in words) [6]: able to decrease the growth; Viability of infected cells relative to aprotinin, Replicate 1 (A/Hessen/1/2003 (H3N2)): 0.0324; Viability of infected cells relative to aprotinin, Replicate 2 (A/Hessen/1/2003 (H3N2)): 0.05366; Viability of infected cells relative to aprotinin, Replicate 3 (A/Hessen/1/2003 (H3N2)): 0.1082; Antibacterial activity (in words) ([7]; L. monocytogenes DSM 20600, growth after 48 h): able to decrease the growth; Bacterial growth relative to medium, L. monocytogenes, replicate 1 [7]: 81.5984; Bacterial growth relative to medium, L. monocytogenes, replicate 2 [7]: 58.0902; Bacterial growth relative to medium, L. monocytogenes, replicate 3 [7]: 20.8033; Bacterial growth relative to medium, P. aeruginosa (50071), replicate 1 [8]: 93.645; Bacterial growth relative to medium, P. aeruginosa (50071), replicate 2 [8]: 105.945; Bacterial growth relative to medium, P. aeruginosa (50071), replicate 3 [8]: 72.2488; Antibacterial activity over the panel (in words) [9]: broad activity against all tested bacteria except P. aeruginosa DSM50071
2 | GSLLGLLDVVKSKVGQTGLL [LS-AMP-A19] | 95.9562 | 82.2712 | 94.9872 | 72.8823 | 76.8187 | 66.0758 | 38.8889 | 63.626 | 16.4993 | Individual dead insects | 70.8601 | 71.4846 | 83.7635 | 0.03506 | 0.03971 | 0.04612 | 0.02926 | 0.02406 | 0.04584 | 91.5432 | Antibacterial activity (in words) [3]: strongly suppressed the growth; Bacterial growth relative to medium, S. epidermidis, replicate 2 [6]: 106.521; Bacterial growth relative to medium, S. epidermidis, replicate 3 [6]: 92.445; Viability of infected cells relative to aprotinin, Replicate 1 (A/Hessen/1/2003 (H3N2)): 0.07115; Viability of infected cells relative to aprotinin, Replicate 2 (A/Hessen/1/2003 (H3N2)): 0.1267; Viability of infected cells relative to aprotinin, Replicate 3 (A/Hessen/1/2003 (H3N2)): 0.119; Bacterial growth relative to medium, L. monocytogenes, replicate 1 [7]: 151.42; Bacterial growth relative to medium, L. monocytogenes, replicate 2 [7]: 105.659; Bacterial growth relative to medium, L. monocytogenes, replicate 3 [7]: 60.4017; Bacterial growth relative to medium, P. aeruginosa (50071), replicate 1 [8]: 103.493; Bacterial growth relative to medium, P. aeruginosa (50071), replicate 2 [8]: 107.483; Bacterial growth relative to medium, P. aeruginosa (50071), replicate 3 [8]: 85.194; Antibacterial activity over the panel (in words) [9]: largely inactive
3 | SLLGLLDVVKSKIGQT [LS-AMP-A15] | 103.062 | 89.9768 | 48.0425 | 80.9004 | 77.0275 | 69.3765 | 87.1981 | 100.338 | 54.7585 | Individual dead insects | 62.2914 | 63.5709 | 94.1265 | 0.04491 | 0.03692 | 0.03514 | 0.05034 | 0.05082 | 0.05878 | 84.6766 | Antibacterial activity (in words) [4]: limited activity; Bacterial growth relative to medium, S. epidermidis, replicate 2 [6]: 83.7361; Bacterial growth relative to medium, S. epidermidis, replicate 3 [6]: 92.3812; Antibacterial activity (in words) [6]: limited activity; Viability of infected cells relative to aprotinin, Replicate 1 (A/Hessen/1/2003 (H3N2)): 0.1635; Viability of infected cells relative to aprotinin, Replicate 2 (A/Hessen/1/2003 (H3N2)): 0.1644; Viability of infected cells relative to aprotinin, Replicate 3 (A/Hessen/1/2003 (H3N2)): 0.1569; Viability of infected cells relative to aprotinin, Replicate 4 (A/Hessen/1/2003 (H3N2); […], replicate 4 (additional internal control)): 0.1576; Bacterial growth relative to medium, L. monocytogenes, replicate 1 [7]: 129.232; Bacterial growth relative to medium, L. monocytogenes, replicate 2 [7]: 92.1308; Bacterial growth relative to medium, L. monocytogenes, replicate 3 [7]: 85.5096; Bacterial growth relative to medium, P. aeruginosa (50071), replicate 1 [8]: 101.444; Bacterial growth relative to medium, P. aeruginosa (50071), replicate 2 [8]: 115.913; Bacterial growth relative to medium, P. aeruginosa (50071), replicate 3 [8]: 84.6093
